Laboratory results as given in article PMC7115876 (Nature, 2020).

Columns and labels:
β44–V2R = experiment: Arrestin recruitment bias from GloSensor cAMP; type: cell-based, turkey (Meleagris gallopavo); settings: with reference to isoprenaline, equiactive comparison approach
MBP–β1AR6P = MBP–β1AR6P (Meleagris gallopavo, UniProt P07700, C116L/C358A/D322K/DEL244-271/E130W/F327A/F338M/M44C/M90V/V103C); experiment: Radioligand saturation binding, receptor in nanodiscs; set-up: species or system turkey (Meleagris gallopavo); settings: read-out: apparent Kd
MBP–β1AR6P + βarr1 = MBP–β1AR6P + βarr1 (Meleagris gallopavo, UniProt P07700, C116L/C358A/D322K/DEL244-271/E130W/F327A/F338M/M44C/M90V/V103C); experiment: Radioligand saturation binding, receptor in nanodiscs with βarr1; set-up: species or system turkey (Meleagris gallopavo); settings: read-out: apparent Kd
MBP–β1AR6P + mini-Gs = MBP–β1AR6P + mini-Gs (Meleagris gallopavo, UniProt P07700, C116L/C358A/D322K/DEL244-271/E130W/F327A/F338M/M44C/M90V/V103C); experiment: Radioligand saturation binding, receptor in nanodiscs with mini-Gs; set-up: species or system turkey (Meleagris gallopavo); settings: read-out: apparent Kd

## COc1ccc(CC(C)NCC(O)c2ccc(O)c(NC=O)c2)cc1 (stereo not shown) [formoterol]
β44–V2R
  bias factor (arrestin recruitment bias): 2.3 ± 0.4

## CCCc1ccccc1OCC(O)CNC(C)C (stereo not shown) [[^3H]DHA, tritiated dihydroalprenolol]
MBP–β1AR6P
  Kd: 6 nM
MBP–β1AR6P + βarr1
  Kd: 6 nM
MBP–β1AR6P + mini-Gs
  Kd: 1.5 nM
